Laboratory results reported in ChEMBL document CHEMBL4414608, “Secophragmalin-Type Limonoids from Trichilia connaroides: Isolation, Semisynthesis, and Their Cytotoxic Activities” (J Nat Prod, 2019).

Key:
A549 = assay: Cytotoxicity against human A549 cells assessed as cell growth inhibition measured after 24 hrs by MTT assay; assay type: functional, cell-based; details: A549, 24 h
HeLa = assay: Cytotoxicity against human HeLa cells assessed as cell growth inhibition measured after 24 hrs by MTT assay; assay type: functional, cell-based
DU-145 [1] = assay: Cytotoxicity against human DU145 cells assessed as cell growth inhibition measured after 24 hrs by MTT assay; assay type: functional, cell-based; details: DU-145, 24 h
COLO 205 = assay: Cytotoxicity against human COLO205 cells assessed as cell growth inhibition measured after 24 hrs by MTT assay; assay type: functional, cell-based; details: COLO 205, 24 h
SK-OV-3 = assay: Cytotoxicity against human SKOV3 cells assessed as cell growth inhibition measured after 24 hrs by MTT assay; assay type: functional, cell-based; details: SK-OV-3, 24 h
DU-145 [2] = assay: Cell cycle arrest in human DU145 cells assessed as accumulation at G0/G1 phase at 5.2 uM measured after 24 hrs by RNase A/propidium iodide staining based flow cytometry analysis (reference value: 51.75 %); assay type: functional
DU-145 [3] = assay: Induction of apoptosis in human DU145 cells assessed as live cells at 5.2 uM measured after 24 hrs by Annexin-V/FITC and propidium iodide staining based flow cytometry (reference value: 95.62 %); assay type: functional
DU-145 [4] = assay: Induction of apoptosis in human DU145 cells assessed as early apoptotic cells at 5.2 uM measured after 24 hrs by Annexin-V/FITC and propidium iodide staining based flow cytometry (reference value: 0.25 %); assay type: functional
DU-145 [5] = assay: Induction of apoptosis in human DU145 cells assessed as late apoptotic cells at 5.2 uM measured after 24 hrs by Annexin-V/FITC and propidium iodide staining based flow cytometry (reference value: 1.49 %); assay type: functional
DU-145 [6] = assay: Induction of apoptosis in human DU145 cells assessed as necrotic cells at 5.2 uM measured after 24 hrs by Annexin-V/FITC and propidium iodide staining based flow cytometry (reference value: 2.64 %); assay type: functional
DU-145 [7] = assay: Induction of apoptosis in human DU145 cells assessed as live cells at 8 uM measured after 24 hrs by Annexin-V/FITC and propidium iodide staining based flow cytometry (reference value: 95.62 %); assay type: functional
DU-145 [8] = assay: Induction of apoptosis in human DU145 cells assessed as early apoptotic cells at 8 uM measured after 24 hrs by Annexin-V/FITC and propidium iodide staining based flow cytometry (reference value: 0.25 %); assay type: functional
DU-145 [9] = assay: Induction of apoptosis in human DU145 cells assessed as late apoptotic cells at 8 uM measured after 24 hrs by Annexin-V/FITC and propidium iodide staining based flow cytometry (reference value: 1.49 %); assay type: functional
DU-145 [10] = assay: Induction of apoptosis in human DU145 cells assessed as necrotic cells at 8 uM measured after 24 hrs by Annexin-V/FITC and propidium iodide staining based flow cytometry (reference value: 2.64 %); assay type: functional

C/C=C(\C)C(=O)O[C@@H]1[C@]2(OC(=O)CCCC)C=C3C4=CC(=O)O[C@@H](c5ccoc5)[C@]4(C)CC[C@@H]3[C@@]3(C)[C@H](C[C@]1(C)[C@H]3[C@@H](O)C(=O)OC)O2
IC50 (A549): 9.4 µM | IC50 (HeLa): > 100 µM | IC50 (DU-145 [1]): 5.2 µM | IC50 (COLO 205): 4 µM | IC50 (SK-OV-3): 13.7 µM | Activity (DU-145 [2]): 42.93% | Activity (DU-145 [3]): 83.45% | Activity (DU-145 [4]): 1.74% | Activity (DU-145 [5]): 10.35% | Activity (DU-145 [6]): 4.46% | Activity (DU-145 [7]): 85.39% | Activity (DU-145 [8]): 1.39% | Activity (DU-145 [9]): 8.11% | Activity (DU-145 [10]): 5.11%
